Tests used:
[1] = tested on: eleven nonbinding cell lines (HeLa S3, RKO, 1271, A549, KYSE-70, HT1080, 293H, 1459, HEEpiC, T84, SK-BR-3); experiment: Binding of 32P-labeled decapeptide to cell lines, two hour incubation, scintillation counting; assay type: cell-based
Description: (§2) Assay of the binding of ^32P-labeled decapeptides to cell lines: Cell lines were grown in complete medium containing 10% bovine fetal serum (heat inactivated). In each well of a 96-well plate, 10,000 cells from various cell lines were grown overnight in complete medium. Ten µl of the labeled-peptide in 1 X PBS and 90 µl of complete medium were added to each well and incubated at 37°C at various times of up to two hours. The peptide-medium was removed and one µl added to 100 ul gel loading buffer and counted by scintillation counting for the probe control or run on a polyacrylamide-SDS gel (Biorad).The adherent cells were briefly and gently washed with complete medium three times and some wells were assayed immediately by adding 100 µl of gel loading buffer to each well and run on a gel or counted in a scintillation counter. Other wells had 100 µl complete medium added and incubated for a further time period. Samples were either counted in a liquid scintillation counter or run on polyacrylamide-SDS gels, exposed to x-ray film, and the film developed.

[2] = tested on: seven avidly binding cell lines (Caco-2, HCT15, HCT116, LoVo, HT29, SEG1, QHTRT); experiment: as above; assay type: cell-based; conditions: two hour incubation with 32P-labeled peptide, seven of the eighteen cell lines
Description: as §2

[3] = tested on: Caco-2 cells; experiment: Release and retention of 32P counts after washing and further incubation in complete medium; assay type: cell-based
Description: (§1) The peptide binding, washing and assay experiment described for Figure 2 was then repeated in the seven most avidly binding cell lines using MA5, except that after three washes of medium, 200 ul of complete medium was added to each well and the cells were incubated overnight at 37°C. […] Approximately 88% of MA5 radioactive counts initially retained by the colon cancer cell lines was released into the medium, while approximately 12% of initially retained radioactive counts were retained by cells. The two esophageal cell lines that originally retained large amounts of radioactive counts, QH-TRT and SEG1, retained 39% and 37% of their original counts, respectively, after overnight incubation. Caco-2 cells retained the greatest number of counts, averaging 58,305 cpm in triplicate wells containing 10,000 cells each. This figure represents approximately 5.8 cpm, or 348 counts per hour, per cell (i.e., when extrapolated over a potential 2-week exposure period, equivalent to over 87,000 counts per cell).

[4] = tested on: QH-TRT Barrett's esophagus cell line; experiment: Release and retention of 32P counts after washing and overnight incubation in complete medium; assay type: cell-based; conditions: two hour incubation, three washes, overnight at 37°C in complete medium
Description: as §1

[5] = tested on: SEG1 esophageal adenocarcinoma cell line; experiment: as above; assay type: cell-based; conditions: two hour incubation, three washes, overnight at 37°C in complete medium
Description: as §1

[6] = tested on: colon cancer cell lines; experiment: as above; assay type: cell-based; conditions: two hour incubation, three washes
Description: as §1

[7] = tested on: seven avidly binding cell lines; experiment: as above; assay type: cell-based; conditions: all seven avidly binding lines
Description: as §1

[8] = tested on: Caco-2 colon adenocarcinoma cell line
Description: as §2

[9] = two hour incubation, three washes, 10,000 cells
[10] = two hours incubation, three wash steps, overnight incubation in medium

GSRRASVASA [MA5]
binding (in words) ([1]; two hour incubation with 32P-labeled peptide, eleven of eighteen cell lines): did not bind
average 32P counts bound, remaining eleven cell lines along with one blank well [1, 9]: 365 cpm
mean values of 32P counts bound, blank wells and nonbinding cell lines [1, 9]: less than 550 cpm
retention of radioactivity (in words) [2]: very strong retention of radioactivity
time course of release of counts (in words) ([3]; 48-hour time period after two hour incubation and washing, triplicate determinations): majority of the total counts released over the 48 hour time period are released by nine hours of incubation
counts retained by cells after overnight incubation ([3]; average of triplicate wells containing 10,000 cells each, two hour incubation, washes, overnight in medium): 58,305 cpm
counts per cell extrapolated over a potential 2-week exposure period ([3]; extrapolated): over 87,000 counts per cell
counts per cell per day, extrapolated ([3]; extrapolated from 5.8 cpm per cell): over 8,300 counts per cell per day
originally retained 32P isotope released [3, 10]: 88%
originally retained 32P isotope retained by cells [3, 10]: 12%
original counts retained after overnight incubation [4]: 39%
original counts retained after overnight incubation [5]: 37%
radioactive counts initially retained that were released into the medium ([6]; 200 ul complete medium, overnight at 37°C): Approximately 88%
initially retained radioactive counts retained by cells ([6]; overnight at 37°C in complete medium): approximately 12%
radioactivity released after an overnight incubation [7]: 63% to 88
ratio of cpm retained by Caco-2 to the average of the eleven nonbinding cell lines ([8]; Caco-2): 818
share of the total radioactive counts present in the incubation well retained by cells ([8]; after two-hour incubation): approximately 18%
radioactive dose transferred per cell ([8]; two hour incubation, wash, immediate determination of retained radioactivity): over 29 counts per minute per cell
retention difference between variants (MA2 vs MA5) ([8]; two hours' incubation, counts bound as percentage of total counts): 70 fold
